The source of these data is article PMC7703437, “In Vitro Hepatic Metabolism of Curcumin Diethyl Disuccinate by Liver S9 from Different Animal Species” (Frontiers in Pharmacology, 2020).

“And” between values parts separate entries of the source, which are not always exact repeats. Equal entries are not always repeated.

Series [1] deals with DLS9. Description: CDD depletion in DLS9 0.02 mg/ml (optimisation of incubation condition). The series is classed as in vitro ADME, dog. To be noted: CDD 3 μM. The procedure: The metabolism profiles of CDD and curcumin formation profile were investigated against HLS9, MLS9, DLS9 and RLS9. A stock solution of CDD was prepared at 150 µM in 50% acetonitrile in water before use. The metabolism study was initiated by spiking a 588 µl pre-incubated LS9 with 12 µl CDD stock solution, and subsequently incubated at 37°C. The final concentrations of CDD and LS9 were 3 µM and 0.02 mg/ml, respectively. A 50 µl aliquot from the mixture was collected at 0.5, 1, 2, 3, 4, 5, 10, 15, 30, 45 and 60 min and was immediately mixed with 100 µl of ice-cold acetonitrile containing 0.45 µM of internal standard DMC to terminate the metabolic reaction. […] Samples of 120 µl of supernatant wee diluted with 40 µl of water prior to UHPLC analysis (Agilent series 1290, Agilent Technology, USA) by means of protocol outlined in Materials and Methods:“In vitro Metabolism Profiling of Curcumin Diethyl Disuccinate”. The sample at 0 min was prepared as other samples except that heat-inactivated HLS9, MLS9, DLS9 and RLS9 (80°C for 20 min; 1 mg/ml protein) were used. Duplicates were conducted for each experiment.
The peak area ratios of CDD and curcumin to internal standard in the supernatant were determined. The percent contents of CDD and curcumin were plotted against incubation time. The depletion of CDD was calculated with reference to the initial concentration. The saturated substrate was defined as % depletion less than 30.

Series [2] in a line: In vitro metabolism profiling of CDD in human liver S9 (1 mg/ml). The series is classed as in vitro ADME. As to conditions: pooled liver S9; human LS9 1 mg/ml; read-out: t 1/2 (CDD). As to the method:
(§1) The metabolism profiles of CDD were investigated against HLS9, MLS9, DLS9, and RLS9. A stock solution of CDD was prepared at 150 µM in 50% acetonitrile in water before use. The metabolism study was initiated by spiking 735 µl of preincubated LS9 with 15 µl of CDD stock solution, and the mixture was subsequently incubated at 37°C. The final concentrations of CDD and LS9 were 3 μM and 1 mg/ml, respectively. A 50-µl aliquot from the mixture was collected at 0.5, 1, 2, 3, 4, 5, 10, 15, 30, 45, 60, 90, and 120 min and immediately mixed with 100 µl of ice-cold acetonitrile containing 0.45 µM of internal standard DMC to terminate the metabolic reaction. […] The sample at the initial time point (0 min) was prepared as the other samples, except that heat-inactivated HLS9, MLS9, DLS9, and RLS9 (80°C for 20 min; 1 mg/ml protein) were used.
(§2) The UHPLC system consisted of an Agilent series 1290 quaternary pump with an online degasser, autosampler, column oven, and diode array detector. The mobile phase was composed of (A) 0.1% (v/v) formic acid in acetonitrile and (B) 0.1% (v/v) formic acid in water. Each solution was filtered through a nylon filter (pore size, 0.22 µm; MS® Membrane Filters; Membrane Solutions, United States) before use. The mobile phase flow rate was kept at 1.2 ml/min in a gradient mode using the following elution program: 0–3.0 min, initial A-B (40:60, v/v); 4.5–7.0 min, isocratic elution A-B [50:50, (v/v); 8.5–11.0 min, isocratic elution A-B (60:40, v/v); and 12.0–17.0 min, isocratic elution A-B (40:60, v/v)]. CDD, curcumin, and MSCUR in the supernatant were partitioned using a C8 column (4.6 mm × 50 mm, 2.7 µm; HALO, Advanced Materials Technology, United States) with reference to DMC. The detection wavelength was set at 400 nm (λ max(CDD) = 400 nm, λ max(curcumin) = 427 nm, λ max(MSCUR) = 418 nm, and λ max(DMC) = 421 nm). The column was maintained at 35°C throughout the run, and the supernatant injection volume was set at 20 µl.
(§3) The concentrations of CDD, curcumin, and MSCUR in the supernatant were determined from the standard plots, which were prepared by spiking individual working solutions of the compounds to heat-inactivated HLS9, MLS9, DLS9, and RLS9 ([Alcorn et al., 2007]; [Montoro-Garcia et al., 2009]; [Singh et al., 2010]). These working standards were extracted with 100 µl of ice-cold acetonitrile containing 0.45 µM of DMC and then 120 μl of the supernatant was diluted with 40 μl of water prior to the UHPLC analysis. The peak area ratios of CDD, curcumin, and MSCUR to the internal standard were computed against linear concentration ranges of 0.025–4.5 µM CDD, 0.025–4.5 µM curcumin, and 0.0125–0.75 µM MSCUR, respectively, with the coefficient of determination (r^2) values greater than 0.99.
(§4) The percent content of CDD and the metabolites formed upon its incubation with LS9, namely, curcumin and MSCUR, was plotted against incubation time.
(§5) The following equations were adopted to describe the changes in CDD and MSCUR content over time (t): A = A0e^−k1t (2) B= k1A0/k2−k1(e^−k1t−e^−k2t), (3) where A0 is the CDD concentration at time 0, k 1 is the degradation rate constant of CDD, and k 2 is the degradation rate constant of MSCUR. k 1 and k 2 were determined by using Eqs. 2 and 3, respectively, with nonlinear regression analysis using the SOLVER function of Microsoft Excel for Office 365 MSO (16.0.12527.20986) ([Brown, 2001]). The half-life (t 1/2) was calculated using Eq. 4: t1/2=0.693/k (4)
(§6) The in vitro intrinsic clearance (CLint,in vitro) of CDD and MSCUR in LS9 was calculated using Eq. 5: CLint, in vitro= k × [V]incubation(ml)/[P]incubation(mg protein), (5) where [V]incubation is the incubation volume in ml, and [P]incubation is the amount of LS9. […]

For series [3], the system named is dog LS9 (DLS9; beagle). The series is described as follows: In vitro metabolism profiling of CDD in dog liver S9 (1 mg/ml). Format: in vitro ADME. The procedure:
as §1, §2, §3, §4, §5, §6

Assay in series [4]: as above
Format: in vitro ADME, dog (beagle). To be noted: beagle, liver S9; dog LS9 1 mg/ml; read-out: t 1/2 (CDD). The procedure: as §1, §2, §3, §4, §5, §6

With `CCOC(=O)CCC(=O)Oc1ccc(/C=C/C(=O)/C=C(O)/C=C/c2ccc(OC(=O)CCC(=O)OCC)c(OC)c2)cc1OC` [CDD, curcumin diethyl disuccinate], the “% CDD remaining” value was determined as 76.77% in series [1] (0.5 min); 66.99% in series [1] (1 min); 49.79% in series [1] (2 min); 42.26% in series [1] (3 min); 31.30% in series [1] (4 min); 25.06% in series [1] (5 min). Besides, the “%Depletion of CDD” value was 23% and 23.23% in series [1] (0.5 min (selected incubation time)); 33.01% in series [1] (1 min); 50.21% in series [1] (2 min); 57.74% in series [1] (3 min); 68.70% in series [1] (4 min); 74.94% in series [1] (5 min). In series [2], the half-life is 27.6 ± 3.6 s. Further, in series [3] (dog LS9), the “CLint, in vitro(CDD)” value stood at 0.85 ± 0.29 ml min^−1 mg protein^−1. For the same molecule, in series [3] (dog LS9 1 mg/ml, CDD 3 µM, 37°C), the “k 1 (CDD)” value was 0.85 ± 0.29 min⁻¹. Further, the “CLint, in vivo(CDD)” value in series [3] (dog, scaled from CLint,in vitro with physiologically based scaling factors) amounted to 198.61 ± 66.73 L/h/kg. In addition, the “CLint, in vivo total” value in series [3] (dog, sum of CLint,in vivo(CDD) and CLint,in vivo(MSCUR)) was 5,915.59 ± 535.14 L h^−1 kg^−1. The “CLH (predicted hepatic clearance)” value in series [3] (dog, well-stirred model, QH 40 ml min^−1 kg^−1, fup 0.0594) is 2.38 ± 1.48 × 10^–3 L h^−1 kg^−1. Also, in series [4], the half-life at 3 µM was determined as 52.2 ± 15 s.
